Measurements published in ChEMBL document CHEMBL1139588, “Ketoheterocycle-based inhibitors of cathepsin K: a novel entry into the synthesis of peptidic ketoheterocycles” (Bioorg Med Chem Lett, 2005).

Assays:
[1] = target: T1, Cathepsin K (Homo sapiens) (UniProt P43235); assay: Percentage inhibition of 10 uM Cbz-Phe-Arg-AMC binding to human cathepsin K at 12.6 uM by fluorescence assay
T1 sequence (whole entry): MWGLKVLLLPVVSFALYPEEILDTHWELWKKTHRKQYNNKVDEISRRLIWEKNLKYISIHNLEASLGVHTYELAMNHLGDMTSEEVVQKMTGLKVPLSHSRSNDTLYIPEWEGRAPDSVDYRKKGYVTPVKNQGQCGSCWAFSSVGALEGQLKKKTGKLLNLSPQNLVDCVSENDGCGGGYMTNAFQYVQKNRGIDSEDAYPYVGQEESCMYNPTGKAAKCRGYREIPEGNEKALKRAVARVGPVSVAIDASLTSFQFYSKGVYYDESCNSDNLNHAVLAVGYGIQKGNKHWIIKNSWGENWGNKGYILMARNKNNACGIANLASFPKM

Cathepsin K = target: T2, Cathepsin K (Homo sapiens, UniProt P43235); assay: Inhibition of 10 uM Cbz-Phe-Arg-AMC binding to human cathepsin K by fluorescence assay
T2 sequence (P43235 whole entry): T1 sequence (whole entry)

Homo sapiens [2] = species on record: Homo sapiens; assay: Ratio of inhibitory potency against cathepsins K and V using 2 uM Cbz-Phe-Arg-AMC in fluorescence assay
Homo sapiens [3] = species on record: Homo sapiens; assay: Ratio of inhibitory potency against cathepsins K and S using 10 uM Cbz-Phe-Arg-AM in fluorescence assay
Homo sapiens [4] = species on record: Homo sapiens; assay: Ratio of inhibitory potency against cathepsins K and B using 10 uM Cbz-Phe-Arg-AMC in fluorescence assay
[5] = target: Cathepsin (L and K) (Homo sapiens) (UniProt P43235+P07711); assay: Ratio of inhibitory potency against cathepsins L and K using 5 uM Cbz-Phe-Arg-AMC in fluorescence assay; format: protein assay
Sequence of Cathepsin (L and K) (Homo sapiens) (P07711 whole entry, looked up, one chain of several): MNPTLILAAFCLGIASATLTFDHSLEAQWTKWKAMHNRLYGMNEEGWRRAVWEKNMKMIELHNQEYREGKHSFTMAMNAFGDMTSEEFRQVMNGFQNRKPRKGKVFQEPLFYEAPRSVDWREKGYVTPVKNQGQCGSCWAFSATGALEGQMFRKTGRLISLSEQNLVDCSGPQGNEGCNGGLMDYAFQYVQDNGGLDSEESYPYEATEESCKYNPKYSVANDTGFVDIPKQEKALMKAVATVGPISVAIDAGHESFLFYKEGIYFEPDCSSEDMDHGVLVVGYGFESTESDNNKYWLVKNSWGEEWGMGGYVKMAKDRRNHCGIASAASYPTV

inhibition [1] [%] | IC50 (Cathepsin K) [µM] | Structure (SMILES) | other results
20 | – | CCOC(=O)c1csc(C(=O)CNC(=O)[C@H](CC(C)C)NC(=O)OCc2ccccc2)n1 | –
– | 1.9 | CCCC[C@H](NC(=O)OC(C(C)C)C(C)C)C(=O)c1cccs1 | –
0 | – | CCOC(=O)c1csc(C(=O)CNC(=O)OC(CC)Cc2ccccc2)n1 (stereo unspecified) | –
– | 13 | CCCC[C@H](NC(=O)[C@H](CC(C)C)NC(=O)OCc1ccccc1)C(=O)c1nc(C(=O)OCC)cs1 | –
28 | – | CCCC[C@H](NC(=O)OC(Cc1ccccc1)C(C)C)C(=O)c1nc(C(=O)OCC)cs1 (stereo partly specified) | –
– | 4 | CCCC[C@H](NC(=O)O[C@@H](C)CC1CCCCC1)C(=O)c1nnc(-c2ccccc2)o1 | –
– | 13 | CCCC[C@H](NC(=O)O[C@@H](C)CC1CCCCC1)C(=O)c1nc(C(F)(F)F)cs1 | –
2 | – | CCCC[C@H](NC(=O)OC(C(C)C)C(C)C)C(=O)c1ccccc1 | –

The next lines start with the molecule.

Structure (SMILES) | inhibition [1] [%] | IC50 (Cathepsin K) [µM] | other results
CCCC[C@H](NC(=O)O[C@@H](C)CC1CCCCC1)C(=O)c1nc(-c2ccccc2)cs1 | – | 7.1 | –
CCOC(=O)c1csc(C(=O)CNC(=O)O[C@@H](C)CC2CCCCC2)n1 | 0 | – | –
CCCC[C@H](NC(=O)O[C@@H](C)CC1CCCCC1)C(=O)c1noc(C)n1 | – | 8.1 | –
CCCC[C@H](NC(=O)OC(CC)Cc1ccccc1)C(=O)c1nc(C(=O)OCC)cs1 (stereo partly specified) | – | > 13 | –
CCCC[C@H](NC(=O)O[C@@H](C)CC1CCCCC1)C(=O)c1nc(C(=O)OCC)cs1 | – | 0.23 | Ratio (Homo sapiens [2]): > 40; Ratio (Homo sapiens [3]): > 40; Ratio (Homo sapiens [4]): > 40; Ratio [5]: > 40
CCCC[C@H](NC(=O)O[C@@H](C)CC1CCCCC1)C(=O)c1nc(C)c(C(=O)OCC)s1 | 10 | – | –
CCCOc1ccccc1C(=O)NCC(=O)c1nc(C(=O)OCC)cs1 | – | > 13 | –
CCCC[C@H](NC(=O)O[C@@H](C)CC1CCCCC1)C(=O)c1nccs1 | – | 3.1 | –
CCCC[C@H](NC(=O)OC(Cc1ccccc1)CC(C)C)C(=O)c1nc(C(=O)OCC)cs1 (stereo partly specified) | 31 | – | –
